Two compounds from patent US6417231B1, “Method and composition for delivering therapeutically effective amounts of pyruvate to a mammal” (priority 1996, dated 2002) can be followed below.

Molecules are shown by their SMILES. Where “and” joins values, the source holds several entries; their conditions need not be identical. Equal entries are not always repeated.

A short description of data set [1]: Time course of blood pyruvate concentration after oral gavage (bioavailability of pyruvate). It is filed as in vivo, male Sprague-Dawley rats. The conditions noted are these: rat; for Blood pyruvate concentration: single animals. The source says: The basic measurement is the time course of serum pyruvate concentration following oral administration of tripyruvin, compared with that following oral administration of sodium pyruvate or a placebo.
Six male Sprague-Dawley rats, weighing 380±28 grams (mean±standard deviation), were used in the initial animal experiments. The rats were divided into three groups of two rats each, one group of two for the experimental treatment, one group for the conventional sodium pyruvate treatment, and one group for placebo. The rats were housed in hanging wire cages (two per cage) in a room maintained at 22° C., and were kept on a twelve-hour light/dark cycle with lights on at 7 AM. All animals had free access to water and to standard laboratory rodent chow; except that on nights before an experiment food was removed at 6 PM.
An initial time-course experiment was performed with the crude reaction mixture, in which tripyruvin and free pyruvate were both present (i.e., with the product of “Step 4” n the synthesis described above, without the further purification of “Step 5.”) 1.14 g of this mixture (76% sodium pyruvate, 24% tripyruvin=0.79 total pyruvate) in 2 mL sterile water was fed by gavage in a single dose. For comparison, rats were fed an equivalent amount of pyruvate as sodium pyruvate in water; or were fed a placebo comprising water only. Blood samples (250 μL) taken from a snipped tail vein were collected before feeding, and at 60, 90, 120, and 150 minutes after gavage feeding.
The assay for serum pyruvate concentration was a modification of the Sigma NADH-NAD assay. Collected blood samples were diluted 1:3 in cold 8% perchloric acid (aqueous), and the precipitates were vortexed and centrifuged. Supernatant (100 μL) was pipetted into a microtiter plate. Trizma base (25 μL) was pipetted into the plate, followed by 25 μL of aqueous NADH solution (1 g/2.2 mL). The absorbance of the solution at 340 nm was then measured as a baseline. […] dehydrogenase (50 μL, 10 U/mL) was then pipetted into the plate, and the plate was incubated at 37° C. for 3-5 minutes. Absorbance at 340 nm was again measured (to assay the extent of the reaction NADH→NAD+H^+). Standards and two levels of quality control samples were run with each plate. Results are shown in Table 1 for each of the six rats.

A short description of another data set: Solubility in water. It is filed as physicochemical. The source says:
After purification, the identity of the tripyruvin was confirmed by laser-desorption mass spectrometry, elemental analysis, and ^1H nuclear magnetic resonance.

The mark [2] stands for this setting: oral gavage, compared with sodium pyruvate.

With `CC(=O)C(=O)[O-].[Na+]` [sodium pyruvate], the Blood pyruvate concentration was 0.07 mM and 0.10 mM in data set [1] (60 min after single oral gavage dose in 2 mL water); 0.07 mM and 0.09 mM in data set [1] (90 min after single oral gavage dose in 2 mL water); 0.12 mM in data set [1] (120 min after single oral gavage dose in 2 mL water); 0.12 mM and 0.16 mM in data set [1] (150 min after single oral gavage dose in 2 mL water); 0.07 mM and 0.06 mM in data set [1] (time 0 min (before gavage feeding)).
On to `CC(=O)C(=O)OCC(COC(=O)C(C)=O)OC(=O)C(C)=O` [tripyruvin, tripyruvyl glycerol], for which the Solubility in water result in the data set “Solubility in water” is “freely soluble”. For the same compound, in data set [1] (setting [2]), the Bioavailability of pyruvate entry is recorded as “higher” and the “Rise in blood pyruvate levels” value is listed as “more rapid rise”.
